Experimental data taken from patent US8703822B2, “Method for removing undifferentiated and dedifferentiated stem cell” (Nanyang Polytechnic, priority 2009, dated 2014).
Values after ≈ are worked out from the molar mass of the structure shown. Read-outs that look alike come from different tables or passages of the source.

Tests used:
[1] = tested on: breast CSC cell line (Celprogen Cat#36102-29P-T25); test: resazurin cell viability assay on breast CSC cell line; type: cell-based; conditions: 12.5 μg/mL, FIG. 14
CSCs = test: cytotoxic effect on CSCs, summary over colon and breast CSC lines; type: cell-based; conditions: summary of the experimental data
Method: Seven analogues having different side chain lengths (JC010, JC011, JC017, JC040, JC048, JC049 and JC050) were tested for their cytotoxic effect on CSCs using the resazurin cell viability assay. Two CSC cell lines were used, a colon CSC cell line (Celprogen Cat#36112-39P-T25) and a breast CSC cell line (Celprogen Cat#36102-29P-T25).

[2] = tested on: colon CSC cell line (Celprogen Cat#36112-39P-T25); conditions: 12.5 μg/mL, FIG. 13
hESCs = test: light microscopy of hESC colonies cultured on murine feeder cells, hESC-selective killing; type: cell-based, human; conditions: for selective killing of hESCs (FIG. 4): 24 hr incubation; for lowest concentration at which cytotoxic effects were seen: 2.5 μg/mL = 8 μM; for killing of hESCs (light microscopic images, FIG. 2): JC010 12 and 24 hours, JC011 24 hours; for cytotoxic effect on undifferentiated hESCs (summary) / specificity (hESCs versus feeder cells), compared among JC010, JC011 and JC017: summary of the experimental data
Method: (§1) Using the above cell viability assays, various cell types including hESCs, differentiated hESCs, human primary astrocytes and murine feeder cells (mouse embryonic fibroblasts (MEFs)) were treated with one of the analogues synthesized in Examples 1 to 3. The cells were then visualized with 5×, 10×, 20× and 40× objectives using dark field, phase optics and fluorescence microscopy with an Olympus IX51 inverted microscope or Leica MZ8 stereomicroscope.
(§2) In the phase contrast optics images (FIGS. 1A and 1B), the hESCs are seen as dark colonies surrounded by the murine feeder cells (mouse embryonic fibroblasts (MEFs)). In the dark field images (FIGS. 1C and 1D), the hESCs are seen as bright colonies surrounded by the murine feeder cells (mouse embryonic fibroblasts (MEFs)).

hESC = test: Trypan Blue cell viability assay on hESC; type: cell-based, human; conditions: 40 μM; 24 hours (JC011 also 48 hr), compared to untreated hESC
Method: The images on the left (A and B) show untreated hESC while the images on the right (C and D) show hESC treated with 40 μM of JC010 for 24 hours. The arrows indicate trypan blue positive dead cells.
The Trypan Blue cell viability assay was conducted by first diluting 10 μL of a cell suspension with 10 μL of 0.4% w/v Trypan Blue solution. The cell suspension and Trypan Blue solution were mixed using a pipette, after which the mixture was incubated at room temperature for 10 minutes. 20 μL of the mixture was then loaded into a charged hemocytometer for visualization under 10× and 20× magnification phase optics microscopy. Cells which stain blue are dead cells.

[3] = tested on: undifferentiated hESCs (H1 cells); test: resazurin cell viability assay on undifferentiated H1 hESCs (FIG. 7A); type: cell-based, human; conditions: 40 μM, 24 hr and 48 hr; versus JC005, capsaicin (CAP) and DMSO
Method: (§3) The hESCs used are undifferentiated H1 cells, while the murine feeder cells (mouse embryonic fibroblasts (MEFs)) used are J28 C57/BL6J cells. The columns represent the means of 4 experiments while the bars represent relative fluorescence ±s.d. The control was untreated hESCs and untreated murine feeder cells (mouse embryonic fibroblasts (MEFs)) with a final DMSO concentration of 1% v/v while the final sample concentration was 40 μM. * denotes P<0.01, Student's T-test, 2-tail.
(§4) The resazurin cell viability assay was conducted on hESC, differentiated hESCs, osteoblasts, murine feeder cells (mouse embryonic fibroblasts (MEFs)), IPSCs derived from foreskin (IPS-DF19-9 and IPS-foreskin) and CSCs (colon CSCs and breast CSCs). The assay is based on the use of an indicator dye resazurin to measure the metabolic capacity of a cell. […]
(§5) In wells A12-H12, 200 μl/well DMSO were added to provide the Blank reading.
(§6) The percentage of the resazurin activity was calculated based on the following equation:
(§7) The percentage of cell death was calculated based on the following equation: % cell death=100−% activity (Eq. 2) […]
(§8) […] The plates were further incubated at 37° C. for 2 h, after which the plate was read at an excitation wavelength of 535 nm and an emission wavelength of 590 nm with a Tecan Infinite 200 microplate reader.

[4] = tested on: murine feeder cells (mouse embryonic fibroblasts (MEFs)), J28 C57/BL6J cells; test: resazurin cell viability assay on murine feeder cells (FIG. 7B); type: cell-based; conditions: 40 μM, 24 hr and 48 hr; versus JC005, capsaicin (CAP) and DMSO
Method: as §3, §4, §5, §6, §7, §8

[5] = tested on: normal human primary astrocytes; test: resazurin cell viability assay on normal human primary astrocytes (FIG. 8B); type: cell-based
[6] = tested on: differentiated hESCs (H1); type: cell-based
Method: (§9) The resazurin cell viability assay was conducted on hESC, differentiated hESCs, osteoblasts, murine feeder cells (mouse embryonic fibroblasts (MEFs)), IPSCs derived from foreskin (IPS-DF19-9 and IPS-foreskin) and CSCs (colon CSCs and breast CSCs). The assay is based on the use of an indicator dye resazurin to measure the metabolic capacity of a cell. A viable cell would retain the ability to reduce resazurin to resorufin, which is a highly fluorescent compound.
as §6
(§10) The percentage of cell death was calculated based on the following equation: % cell death=100−% activity (Eq. 2)
(§11) The cells were plated in a 96-well multi-well plate 5 days before the assay. 200 μL of medium containing 10^5/mL cells (i.e. 2×10^4 cells) were used for each well.
The cells were then treated with 12.5 μg/mL of the capsaicin analogues. The final concentration of DMSO used as control was 1% v/v.
[…] The media was then removed from the wells and 100 μL of PBS buffer was added to each well. 20 μL of resazurin was added to each well to give a final resazurin concentration of 8 μg/mL. The plates were further incubated at 37° C. for 2 h, after which the plate was read at an excitation wavelength of 535 nm and an emission wavelength of 590 nm with a Tecan Infinite 200 microplate reader.
bGFG is a critical growth factor that maintains the hESCs in the undifferentiated state. Removal or withdrawal of bGFG induces hESCs to undergo differentiation.

undifferentiated hESCs = test: dose response curves on undifferentiated hESCs (FIG. 11A); type: cell-based, human; conditions: from dose response curve FIG. 11A
Excerpt: In other words, JC010 and JC011 were very cytotoxic against undifferentiated hESCs. It can also be seen from the dose response curve in FIG. 11B, that both analogues were not cytotoxic to differentiated cells.

[7] = tested on: murine feeder cells (mouse embryonic fibroblasts (MEFs)); test: light microscopy of murine feeder cells co-cultured with hESCs; type: cell-based; conditions: summary of the experimental data
Method: as §1, §2

Wicell H1 cells = test: dichlorofluorescin diacetate (DCFH-DA) analysis of reactive oxygen species; type: cell-based, human; conditions: 12.5 μg/mL, 3 hr
Method: Live adherent cells were washed with PBS solution. DCHF-DA solution was then added to the cells in PBS solution at a final working concentration of 10 μM. The mixture was then incubated at room temperature for 5 minutes, and visualized under a fluorescence microscope with FITC filters. Bright green fluorescent cells are indicative of cells with a high content of reactive oxygen species (ROS).

IPS-DF19-9 cells = test: resazurin cell viability assay on IPS-DF19-9 cells; type: cell-based; conditions: 12 μg/mL, 16-hour exposure
Method: as §9, §6, §10, §11
(§12) The cells were then incubated at 37° C. for about 16 h overnight in 5% CO2. The media was then removed from the wells and 100 μL of PBS buffer was added to each well. 20 μL of resazurin was added to each well to give a final resazurin concentration of 8 μg/mL. The plates were further incubated at 37° C. for 2 h, after which the plate was read at an excitation wavelength of 535 nm and an emission wavelength of 590 nm with a Tecan Infinite 200 microplate reader. […]

IPS-foreskin cells = test: resazurin cell viability assay on IPS-foreskin cells; type: cell-based; conditions: 12 μg/mL, 16-hour exposure
Method: as §9, §6, §10, §11, §12

[8] = comparison value, source not given; cited from earlier work

SMILES: CCCCCCCCCCC(=O)NCc1ccc(O)c(O)c1 [JC049]
- cell death, breast CSC cell line [1]: 25-35%
- cytotoxic effect on CSCs (summary) (CSCs): high cytotoxic effect
- cell death, colon CSC cell line [2]: 15-33%

SMILES: CCCCCCCCCCCC(=O)NCc1ccc(O)c(O)c1 [JC048]
- cell death, breast CSC cell line [1]: ~55%
- cytotoxic effect on CSCs (summary) (CSCs): high cytotoxic effect
- cell death, colon CSC cell line [2]: ~45%

SMILES: CCCCCCCCNC(=O)NCc1ccc(O)c(O)c1 [JC010]
- selective killing of hESCs (FIG. 4) (hESCs; 2.5 μg/mL (8 μM)): selectively killed
- lowest concentration at which cytotoxic effects were seen (hESCs): 2.5 µg/mL
- selective killing of hESCs (FIG. 4) (hESCs; 12.5 μg/mL (40 μM)): selectively killed
- killing of hESCs (light microscopic images, FIG. 2) (hESCs; 40 μM): selective and rapid killing of hESCs
- cytotoxic effect on undifferentiated hESCs (summary) (hESCs): particularly high cytotoxic effect
- killing of hESC in Trypan Blue assay (FIGS. 5 and 6) (hESC): wide spread killing of hESC
- relative fluorescence of treated undifferentiated hESCs (H1 cells) [3]: significantly lower
- relative fluorescence of treated murine feeder cells [4]: not significantly different
- cell death of normal human primary astrocytes [5]: low percentages of cell death
- cytotoxic effect on differentiated cells (summary) [6]: relatively low
- cytotoxicity to differentiated cells (dose response curve) [6]: not cytotoxic
- IC50 (undifferentiated hESCs; Homo sapiens): ~2.5 µg/mL (≈ 8.49 µM)
- cell death, breast CSC cell line [1]: about 15%
- cell death of hESCs (BGO1v) (hESC cell line BGO1v): high percentages of cell death

SMILES: CCCCCCNC(=O)NCc1ccc(O)c(O)c1 [JC017]
- killing effect on hESCs (light microscopic images, FIG. 3) (hESCs; 40 μM, 12 hours, compared to FIG. 2): not as selective nor as potent as the effect of the analogues JC010 and JC011
- cytotoxic effect on undifferentiated hESCs (summary) (hESCs): particularly high cytotoxic effect
- specificity (hESCs versus feeder cells), compared among JC010, JC011 and JC017 (hESCs): lowest specificity
- killing of feeder cells (summary) [7]: some feeder cells were also killed
- cell death of normal human primary astrocytes [5]: low percentages of cell death
- cell death, breast CSC cell line [1]: about 15%
- cell death of hESCs (BGO1v) (hESC cell line BGO1v): high percentages of cell death
- cell death, colon CSC cell line [2]: 15-33%

SMILES: CCCCCCCCCC(=O)NCc1ccc(O)c(O)c1 [JC040]
- cell death, breast CSC cell line [1]: 25-35%
- cytotoxic effect on CSCs (summary) (CSCs): high cytotoxic effect
- cell death, colon CSC cell line [2]: ~45%

SMILES: CCCCCCCCCCCCCC(=O)NCc1ccc(O)c(O)c1 [JC050]
- cell death, breast CSC cell line [1]: 25-35%

SMILES: CCCCCCCCC(=O)NCc1ccc(OC)c(O)c1 [JC005]
- selective killing of hESCs (FIG. 4) (hESCs; 12.5 μg/mL (40 μM)): No such killing effect
- cell death of normal human primary astrocytes ([5]; 40 μM, FIG. 8B): not cytotoxic
- cell death of hESCs (BGO1v) (hESC cell line BGO1v; 40 μM, FIG. 8A): not cytotoxic

SMILES: CCCCCCCCNC(=O)Cc1cc(O)ccc1O [JC026]
- selective cytotoxic activity towards undifferentiated or dedifferentiated stem cells (hESC cell line BGO1v): did not exhibit any selective cytotoxic activity

SMILES: CCCCCCCCC(=O)NCc1ccc(O)c(O)c1 [JC011]
- selective killing of hESCs (FIG. 4) (hESCs; 2.5 μg/mL (8 μM)): selectively killed
- lowest concentration at which cytotoxic effects were seen (hESCs): 2.5 µg/mL
- selective killing of hESCs (FIG. 4) (hESCs; 12.5 μg/mL (40 μM)): selectively killed
- killing of hESCs (light microscopic images, FIG. 2) (hESCs; 40 μM): selective and rapid killing of hESCs
- cytotoxic effect on undifferentiated hESCs (summary) (hESCs): particularly high cytotoxic effect
- specificity (hESCs versus feeder cells), compared among JC010, JC011 and JC017 (hESCs): highest specificity
- killing of hESC in Trypan Blue assay (FIGS. 5 and 6) (hESC): wide spread killing of hESC
- relative fluorescence of treated undifferentiated hESCs (H1 cells) [3]: significantly lower
- relative fluorescence of treated murine feeder cells [4]: not significantly different
- cell death of normal human primary astrocytes [5]: low percentages of cell death
- cytotoxic effect on differentiated cells (summary) [6]: relatively low
- cytotoxicity to differentiated cells (dose response curve) [6]: not cytotoxic
- killing of differentiated hESCs (relative fluorescence versus control) ([6]; 40 μM, 24 hr, bGFG withdrawn, FIG. 9): did not kill differentiated hESCs
- ROS content compared to untreated cells (Wicell H1 cells): decreased significantly
- IC50 (in words) (undifferentiated hESCs): at the nanogram level
- IPS-DF19-9 cells killed compared to the control (IPS-DF19-9 cells): about 67%
- IPS-DF19-9 cells remained alive (IPS-DF19-9 cells): 33%
- IPS-foreskin cells killed compared to the control (IPS-foreskin cells): about 62%
- IPS-foreskin cells remained alive (IPS-foreskin cells): 38%
- cell death, breast CSC cell line [1]: about 15%
- cell death of hESCs (BGO1v) (hESC cell line BGO1v): high percentages of cell death

SMILES: CCCCCCNC(=O)Cc1cc(O)ccc1O [JC025]
- selective cytotoxic activity towards undifferentiated or dedifferentiated stem cells (hESC cell line BGO1v): did not exhibit any selective cytotoxic activity

SMILES: COc1cc(CNC(=O)CCCC/C=C/C(C)C)ccc1O [capsaicin]
- concentration for in vitro cytotoxic effect [8]: 100 µM
